Source: patent US20100068150A1, “Selective Caspase Inhibitors” (The Board of Trustees of the Leland Stanford Junior …, priority 2006, published 2010)

How the values were obtained:
Type in all cases: biochemical
[1] = target: T1, Caspase-3 (Homo sapiens, UniProt P42574); test: Kinetic compound screening, progress curve method, caspase-3; settings: for Ki(app) Caspase-3: Table III, Ki(app) = Kass or Kobs/I, 5 nM active caspase-3; for Caspase-3 Ki(app): Table IV
T1 sequence (P42574 29-175 limits assumed): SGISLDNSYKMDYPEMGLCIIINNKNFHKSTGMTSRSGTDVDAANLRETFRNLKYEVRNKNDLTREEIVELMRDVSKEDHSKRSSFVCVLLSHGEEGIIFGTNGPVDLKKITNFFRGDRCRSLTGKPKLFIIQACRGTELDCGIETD
T1 sequence (P42574 176-277 limits assumed): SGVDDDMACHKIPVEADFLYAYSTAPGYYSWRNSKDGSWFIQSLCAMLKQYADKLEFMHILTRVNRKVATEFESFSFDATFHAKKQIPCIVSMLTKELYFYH
Excerpt: (§1) Table III below presents Ki(app) values for select AB compounds. Ki(app) values (also called Kass or Kobs/I) represent the speed of inhibitor binding to a target enzyme. Units are [M^−1s^−1]. NI indicates no inhibition at concentrations tested. Parent compounds AB09, ABo8, and AB07 that include the optimal substrate specificity sequences for caspases-3, […] as determined by Thornberry and colleagues (Thornberry et al., 19970 are included between double lines.
(§2) The inhibitors AB07 (NP-LEHD-AOMK, caspase-9), AB08 (NP-LETD-AOMK, caspase-8), and AB09 (NP-DEVD-AOMK, caspase-3) were synthesized and kinetic inhibition constants (Kiapp) were obtained for all compounds for caspases 3, 7, 8 and 9 using the progress curve method for pseudo-first order reactions kinetics (Salvesen, 1989) (structures shown in Table I). […] Ki(app) values (also called Kass or Kobs/I) represent the speed of inhibitor binding to a target enzyme. Units are [M-1s-1]. NI indicates no inhibition at concentrations tested, ND indicates data not determined, SD indicates standard deviation.
(§3) Compound screening was completed using the progress curve method as described (Salvesen, 1989). All screening was carried out in caspase reaction buffer. The caspase-9 specific compounds AB38, 40, 41 and 42 were screened in caspase reaction buffer and in caspase buffer with 1M sodium citrate instead of sucrose as described (Pop, 2006) The concentrations of active caspases used is as follows: 5 nM active caspase-3, 5 nM active caspase-7, 10 nM active caspase-8, and 50 nM active caspase-9. To ensure full activation, caspases 3/7, 8 and 9 were preincubated at 37° C. for 5, 10, or 40 minutes respectively before kinetic measurements were made.

[2] = target: T2, Caspase-7 (Homo sapiens, UniProt P55210); test: Kinetic compound screening, progress curve method, caspase-7; settings: for Ki(app) Caspase-7: Table III, Ki(app) = Kass or Kobs/I, 5 nM active caspase-7; for Caspase-7 Ki (app): Table IV
T2 sequence (P55210 1-303): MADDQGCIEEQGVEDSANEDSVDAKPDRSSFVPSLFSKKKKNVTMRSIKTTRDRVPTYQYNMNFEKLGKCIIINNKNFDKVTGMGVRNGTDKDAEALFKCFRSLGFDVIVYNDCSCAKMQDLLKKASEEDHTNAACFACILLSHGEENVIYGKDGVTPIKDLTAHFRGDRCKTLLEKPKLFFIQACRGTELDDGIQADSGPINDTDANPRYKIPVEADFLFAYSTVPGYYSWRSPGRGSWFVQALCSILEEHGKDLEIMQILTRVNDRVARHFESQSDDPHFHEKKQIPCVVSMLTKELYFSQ
Excerpt: as §1, §2, §3

[3] = target: Caspase-8 (Homo sapiens, UniProt Q14790); test: Kinetic compound screening, progress curve method, caspase-8; settings: for Ki(app) Caspase-8: Table III, Ki(app) = Kass or Kobs/I, 10 nM active caspase-8; for Caspase-8 Ki (app): Table IV, NI = no inhibition at concentrations tested
Chain of Caspase-8 (Q14790 217-479): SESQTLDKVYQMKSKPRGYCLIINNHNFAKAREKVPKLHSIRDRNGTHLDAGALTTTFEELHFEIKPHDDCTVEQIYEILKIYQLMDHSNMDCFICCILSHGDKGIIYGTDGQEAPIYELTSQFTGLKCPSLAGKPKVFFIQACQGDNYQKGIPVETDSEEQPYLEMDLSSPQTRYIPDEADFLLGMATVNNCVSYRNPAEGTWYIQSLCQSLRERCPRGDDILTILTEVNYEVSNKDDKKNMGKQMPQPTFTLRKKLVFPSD
Excerpt: as §1, §2, §3

[4] = target: T3, Caspase-9 (Homo sapiens, UniProt P55211); test: Kinetic compound screening, progress curve method, caspase-9; settings: for Ki(app) Caspase-9: Table III, Ki(app) = Kass or Kobs/I, 50 nM active caspase-9; for Ki(app) Caspase-9 / Caspase-9 Ki (app): NI = no inhibition at concentrations tested; for Caspase-9 Ki (app): Table IV
T3 sequence (P55211 1-416): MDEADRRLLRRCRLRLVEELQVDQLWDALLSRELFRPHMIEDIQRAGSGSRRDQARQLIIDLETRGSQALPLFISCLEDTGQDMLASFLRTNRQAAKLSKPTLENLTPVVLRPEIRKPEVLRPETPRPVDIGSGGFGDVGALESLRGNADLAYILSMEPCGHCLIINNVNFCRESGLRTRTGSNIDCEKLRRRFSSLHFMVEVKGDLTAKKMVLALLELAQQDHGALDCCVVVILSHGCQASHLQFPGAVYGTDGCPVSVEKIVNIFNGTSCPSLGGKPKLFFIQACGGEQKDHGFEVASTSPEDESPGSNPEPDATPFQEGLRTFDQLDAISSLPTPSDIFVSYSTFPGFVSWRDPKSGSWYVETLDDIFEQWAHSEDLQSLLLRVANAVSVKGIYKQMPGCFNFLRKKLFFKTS
Excerpt: as §1, §2, §3

Compound	Ki(app) Caspase-3 [1]	Ki(app) Caspase-7 [2]	Caspase-7 Ki (app) [2]	Ki(app) Caspase-8 [3]	Caspase-8 Ki (app) [3]	Ki(app) Caspase-9 [4]	Caspase-9 Ki (app) [4]	Caspase-3 Ki(app) [1]	inhibition of caspase-8, in words [3]	activity for caspase-9, in words [4]
Cc1cccc(C)c1C(=O)OCC(=O)[C@H](CC(=O)O)NC(=O)[C@@H](NC(=O)[C@H](Cc1ccccn1)NC(=O)[C@H](Cc1ccc2ccccc2c1)NC(=O)Cc1ccc(O)c([N+](=O)[O-])c1)C(C)C [AB16, Np-26-3-V-D-DMBA]	484,495 M^−1s^−1	24,185 M^−1s^−1	24,185 M-1s-1	121,650 M^−1s^−1	121,650 M-1s-1	–	–	484,495 M-1s-1	–	–
Cc1cccc(C)c1C(=O)OCC(=O)[C@H](CC(=O)O)NC(=O)[C@@H](NC(=O)[C@@H](NC(=O)[C@H](Cc1ccc2ccccc2c1)NC(=O)Cc1ccc(O)c([N+](=O)[O-])c1)c1ccccc1)C(C)C [AB15, Np-26-34-V-D-DMBA]	–	–	–	–	–	–	–	133,705 M-1s-1	–	–
Cc1ccc(C[C@@H](NC(=O)[C@H](CC(=O)O)NC(=O)Cc2ccc(O)c([N+](=O)[O-])c2)C(=O)N[C@H](C(=O)N[C@@H](CC(=O)O)C(=O)COC(=O)c2c(C)cccc2C)C(C)C)cc1 [AB31, Np-D-30-V-D-DMBA]	–	–	–	–	–	–	–	64,873 M-1s-1	–	–
Cc1cccc(C)c1C(=O)OCC(=O)[C@H](CC(=O)O)NC(=O)[C@H](Cc1cc[nH]c1)NC(=O)[C@H](CCC(=O)O)NC(=O)[C@H](CC(C)C)NC(=O)Cc1ccc(O)c([N+](=O)[O-])c1 [AB07, Np-L-E- H-D-DMBA]	75,295 M^−1s^−1	10,447 M^−1s^−1	10,447 M-1s-1	506,912 M^−1s^−1	506,912 M-1s-1	20,141 M^−1s^−1	41 M⁻¹ s⁻¹	75,295 M-1s-1	more rapid inhibition of caspase-8	–
Cc1cccc(C)c1C(=O)OCC(=O)[C@H](CC(=O)O)NC(=O)[C@@H](NC(=O)[C@@H](NC(=O)[C@H](CC(=O)O)NC(=O)Cc1ccc(O)c([N+](=O)[O-])c1)c1ccccc1)C(C)C [AB13, Np-D-E-34-V-D-DMBA]	3,416,050 M^−1s^−1	279,519 M^−1s^−1	279,519 M-1s-1	<5,000 M^−1s^−1	<5,000 M-1s-1	–	–	3,416,050 M-1s-1	–	–
Cc1cccc(C)c1C(=O)OCC(=O)[C@H](CC(=O)O)NC(=O)C1CCCN1C(=O)[C@@H](CCC(=O)O)NC(=O)[C@H](CC(=O)O)NC(=O)Cc1ccc(O)c([N+](=O)[O-])c1 (stereo partly drawn) [AB11, NP-D-E- P-D-DMBA]	2,482,333 M^−1s^−1	199,341 M^−1s^−1	199,341 M-1s-1	580,547 M^−1s^−1	580,547 M-1s-1	47,362 M^−1s^−1	47,362 M-1s-1	2,482,333 M-1s-1	–	–
Cc1ccc(C[C@H](NC(=O)[C@H](CC(=O)O)NC(=O)Cc2ccc(O)c([N+](=O)[O-])c2)C(=O)NC2(C(=O)N[C@@H](CC(=O)O)C(=O)COC(=O)c3c(C)cccc3C)CC2)cc1 [AB30, Np-D-30-11-D-DMBA]	–	–	–	–	–	–	–	448,179 M-1s-1	–	–
Cc1cccc(C)c1C(=O)OCC(=O)[C@H](CC(=O)O)NC(=O)C1(NC(=O)[C@H](CCC(=O)O)NC(=O)[C@H](CC(=O)O)NC(=O)Cc2ccc(O)c([N+](=O)[O-])c2)CC1 [AB29, Np-D-E-11-D-DMBA]	–	–	–	–	90,503 M-1s-1	–	–	341,429 M-1s-1	–	–
Cc1cccc(C)c1C(=O)OCC(=O)[C@H](CC(=O)O)NC(=O)[C@@H](NC(=O)[C@H](CCC(=O)O)NC(=O)[C@H](CC(C)C)NC(=O)Cc1ccc(O)c([N+](=O)[O-])c1)C(C)O (stereo partly drawn) [AB08, Np-L-E- T-D-DMBA]	127,835 M^−1s^−1	19,424 M^−1s^−1	19,424 M-1s-1	599,788 M^−1s^−1	599,788 M-1s-1	<5,000 M^−1s^−1	<5,000 M-1s-1	127,835 M-1s-1	–	–
Cc1cccc(C)c1C(=O)OCC(=O)[C@H](CC(=O)O)NC(=O)[C@@H](NC(=O)[C@H](CCC(=O)O)NC(=O)[C@H](Cc1ccc(I)cc1)NC(=O)Cc1ccc(O)c([N+](=O)[O-])c1)C1Cc2ccccc2C1 [AB19, NP-31-E-23-D-DMBA]	179,086 M^−1s^−1	42,994 M^−1s^−1	42,994 M-1s-1	396,225 M^−1s^−1	396,225 M-1s-1	–	–	179,086 M-1s-1	retained relatively good potency for caspase-8	no measurable activity for caspase-9

Continued, in another order:

Ki(app) Caspase-3 [1]	Ki(app) Caspase-7 [2]	Caspase-7 Ki (app) [2]	Ki(app) Caspase-8 [3]	Caspase-8 Ki (app) [3]	Ki(app) Caspase-9 [4]	Caspase-9 Ki (app) [4]	Compound	Caspase-3 Ki(app) [1]	inhibition of caspase-8, in words [3]	activity for caspase-9, in words [4]
781,733 M^−1s^−1	448,155 M^−1s^−1	448,155 M-1s-1	126,323 M^−1s^−1	126,323 M-1s-1	–	–	Cc1cccc(C)c1C(=O)OCC(=O)[C@H](CC(=O)O)NC(=O)[C@@H](NC(=O)C(CCC(=O)O)NC(=O)[C@H](Cc1ccc2ccccc2c1)NC(=O)Cc1ccc(O)c([N+](=O)[O-])c1)C(C)C (stereo partly drawn) [AB17, Np-26-E-V-D-DMBA]	781,733 M-1s-1	–	–
570,900 M^−1s^−1	181,332 M^−1s^−1	181,332 M-1s-1	1,071,401 M^−1s^−1	1,071,401 M-1s-1	41,300 M^−1s^−1	41,300 M-1s-1	Cc1ccc(C[C@H](NC(=O)Cc2ccc(O)c([N+](=O)[O-])c2)C(=O)N[C@@H](CCC(=O)O)C(=O)N[C@H](C(=O)N[C@@H](CC(=O)O)C(=O)COC(=O)c2c(C)cccc2C)C(C)O)cc1 (stereo partly drawn) [AB20, Np-29-E-T-D-DMBA]	570,900 M-1s-1	highest kinetic inhibition constants for caspase-8 that we have measured so far	–
216,040 M^−1s^−1	234,945 M^−1s^−1	234,945 M-1s-1	572,012 M^−1s^−1	572,012 M-1s-1	12,320 M^−1s^−1	12,320 M-1s-1	Cc1cccc(C)c1C(=O)OCC(=O)[C@H](CC(=O)O)NC(=O)[C@@H](NC(=O)[C@H](CCC(=O)O)NC(=O)[C@H](Cc1ccc(I)cc1)NC(=O)Cc1ccc(O)c([N+](=O)[O-])c1)C(C)O (stereo partly drawn) [AB18, NP-31-E-T-D-DMBA]	216,040 M-1s-1	–	–
5,652,900 M^−1s^−1	783,840 M^−1s^−1	783,840 M-1s-1	271,626 M^−1s^−1	271,626 M-1s-1	–	–	Cc1ccc(C[C@H](NC(=O)[C@H](CC(=O)O)NC(=O)Cc2ccc(O)c([N+](=O)[O-])c2)C(=O)N[C@H](C(=O)N[C@@H](CC(=O)O)C(=O)COC(=O)c2c(C)cccc2C)C(C)C)cc1 [AB12, Np-D-E-29-V-D-DMBA]	5,652,900 M-1s-1	–	–
